Drawing on patent US20240124442A1, “TRICYCLIC-AMIDO-BICYCLIC PRMT5 INHIBITORS” (AMGEN INC., priority 2021, published 2024), this text covers IC50 for 18 compounds.

The structures appear in SMILES notation. pIC50: −log10 of the molar value.

The term pIC50 denotes the negative decadic logarithm of the IC50, by convention in mol/L.

Assay [1] has as its system HCT116 MTAP null cells. As to the kind of experiment: HCT116 MTAP null cell line proliferation / cell viability (CellTiter-Glo, 6 days). It is filed as cell-based. The settings on record: 144 h; HCT116 MTAP null cells, 6 days treatment, CellTiter-Glo cell viability; read-out: HCT-116 MTAP null IC50. Summed up: (§1)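 Viability read by CellTiter-Glo luminescence after 6 days of compound treatment of HCT116 WT and MTAP-null cells (RPMI 1640, 10% FBS). Dose series were 1:3 steps from 1 or 10 μM (8–9 points), or 1:2 steps from 10 or 50 μM (22 points). IC50 from 4-parameter logistic or fixed-slope sigmoidal fit.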
(In ATP-based viability assays light output follows the ATP content of the culture.)

Assay [2] concerns HCT116 WT cells. Description: HCT116 WT (parent) cell line proliferation / cell viability (CellTiter-Glo, 6 days). The class given is cell-based. Conditions: Homo sapiens, HCT-116, 144 h, 6 days treatment. The method in brief:
as §1

`CN(C(=O)c1cc2c(cc1Cl)nc(N)c1cnn(C)c12)[C@@H]1COc2cc(OC(F)(F)F)ccc21` [Example 481, 4-amino-7-chloro-N,1-dimethyl-N-((3S)-6-(trifluoromethoxy)-2,3-dihydro-1-benzofuran-3-yl)-1H-pyrazolo[4,3-c]quinoline-8-carboxamide]: the pIC50 in assay [1] is 8.30; in assay [2], 7.35.
As for `CN(C(=O)c1cc2c(cc1F)nc(N)c1c2cnn1C)[C@@H]1COc2cc(Cl)c(Cl)cc21` [Example 483, 4-amino-N-((3S)-5,6-dichloro-2,3-dihydro-1-benzofuran-3-yl)-7-fluoro-N,3-dimethyl-3H-pyrazolo[3,4-c]quinoline-8-carboxamide], the pIC50 in assay [1] was 7.09; in assay [2], 5.28.
The matching figures for `CN(C(=O)c1cc2c(cc1Cl)nc(N)c1c2cnn1C)[C@@H]1COc2cc(C(F)(F)F)ccc21` [Example 486, 4-amino-7-chloro-N,3-dimethyl-N-((3S)-6-(trifluoromethyl)-2,3-dihydro-1-benzofuran-3-yl)-3H-pyrazolo[3,4-c]quinoline-8-carboxamide]: 7.11 and 5.31.
In the case of `CN(C(=O)c1cc2c(cc1Cl)nc(N)c1c2cnn1C)[C@@H]1COc2cc(OC(F)(F)F)ccc21` [Example 487, 4-amino-7-chloro-N,3-dimethyl-N-((3S)-6-(trifluoromethoxy)-2,3-dihydro-1-benzofuran-3-yl)-3H-pyrazolo[3,4-c]quinoline-8-carboxamide], the negative-log IC50 (pIC50) in assay [1] is 7.33; in assay [2] it was 5.54.
Taken in the same sequence, the figures for `C[C@H]1OCc2c1c(N)nc1ccc(C(=O)N(C)[C@@H]3COCc4nc(C(F)(F)F)ccc43)cc21` [Example 488, (3R)-4-amino-N,3-dimethyl-N-((5S)-2-(trifluoromethyl)-5,8-dihydro-6H-pyrano[3,4-b]pyridin-5-yl)-1,3-dihydrofuro[3,4-c]quinoline-8-carboxamide] were 7.89 and 6.17.
As for `CN(C(=O)c1cc2c3c(c(N)nc2cn1)COC3)[C@@H]1COCc2cc(C#N)ccc21` [Example 489, 4-amino-N-((4S)-7-cyano-3,4-dihydro-1H-2-benzopyran-4-yl)-N-methyl-1,3-dihydrofuro[3,4-c][1,7]naphthyridine-8-carboxamide], the values for the pIC50 in assay [1] and in assay [2] were 7.31 and 5.65, respectively.
Taken in the same sequence, the figures for `CN(C(=O)c1cc2c3c(c(N)nc2cn1)COC3)[C@@H]1COCc2cc(C(F)(F)F)ccc21` [Example 490, 4-amino-N-methyl-N-((4S)-7-(trifluoromethyl)-3,4-dihydro-1H-2-benzopyran-4-yl)-1,3-dihydrofuro[3,4-c][1,7]naphthyridine-8-carboxamide] were 7.48 and 5.99.
As for `CN(C(=O)c1cc2c3c(c(N)nc2cn1)COC3)[C@@H]1COCc2nc(C(F)(F)F)ccc21` [Example 491, 4-amino-N-methyl-N-((5S)-2-(trifluoromethyl)-5,8-dihydro-6H-pyrano[3,4-b]pyridin-5-yl)-1,3-dihydrofuro[3,4-c][1,7]naphthyridine-8-carboxamide], the figures for the pIC50 in assay [1] and in assay [2] were 7.37 and 5.69, respectively.
The matching figures for `CN(C(=O)c1cc2c3c(c(N)nc2cn1)COC3)[C@@H]1COCc2cc(C(F)(F)F)ncc21` [Example 492, 4-amino-N-methyl-N-((4S)-7-(trifluoromethyl)-3,4-dihydro-1H-pyrano[4,3-c]pyridin-4-yl)-1,3-dihydrofuro[3,4-c][1,7]naphthyridine-8-carboxamide]: 6.15 and 4.50.
Taken in the same sequence, the figures for `CN(C(=O)c1cnc2nc(N)c3c(c2c1)COC3)[C@@H]1COCc2cc(C(F)(F)F)ccc21` [Example 493, 4-amino-N-methyl-N-((4S)-7-(trifluoromethyl)-3,4-dihydro-1H-2-benzopyran-4-yl)-1,3-dihydrofuro[3,4-c][1,8]naphthyridine-8-carboxamide] were 7.04 and 5.69.
The matching figures for `CN(C(=O)c1cc2c3c(c(N)nc2cc1F)COC3)[C@@H]1COCc2nc(C(F)(F)F)ccc21` [Example 494, 4-amino-7-fluoro-N-methyl-N-((5S)-2-(trifluoromethyl)-5,8-dihydro-6H-pyrano[3,4-b]pyridin-5-yl)-1,3-dihydrofuro[3,4-c]quinoline-8-carboxamide]: 7.64 and 6.17.
For `C[C@H]1OCc2c1c(N)nc1cc(F)c(C(=O)N(C)[C@@H]3COCc4nc(C(F)(F)F)ccc43)cc21` [Example 495, (3R)-4-amino-7-fluoro-N,3-dimethyl-N-((5S)-2-(trifluoromethyl)-5,8-dihydro-6H-pyrano[3,4-b]pyridin-5-yl)-1,3-dihydrofuro[3,4-c]quinoline-8-carboxamide], the pIC50 in assay [1] was 7.82; in assay [2] it was 6.41.
The matching figures for `CN(C(=O)c1cc2c3c(c(N)nc2cc1Cl)COC3)[C@@H]1COCc2cc(C#N)ccc21` [Example 496, 4-amino-7-chloro-N-((4S)-7-cyano-3,4-dihydro-1H-2-benzopyran-4-yl)-N-methyl-1,3-dihydrofuro[3,4-c]quinoline-8-carboxamide]: 8.30 and 6.69.
Taken in the same sequence, the figures for `Cc1noc2c1c(N)nc1ccc(C(=O)N(C)[C@@H]3COCc4cc(C#N)ccc43)cc12` [Example 497, 4-amino-N-((4S)-7-cyano-3,4-dihydro-1H-2-benzopyran-4-yl)-N,3-dimethyl[1,2]oxazolo[4,5-c]quinoline-8-carboxamide] were 6.46 and 4.71.
The matching figures for `Cc1noc2c1c(N)nc1ccc(C(=O)N(C)[C@@H]3COCc4cc(C(F)(F)F)ccc43)cc12` [Example 498, 4-amino-N,3-dimethyl-N-((4S)-7-(trifluoromethyl)-3,4-dihydro-1H-2-benzopyran-4-yl)[1,2]oxazolo[4,5-c]quinoline-8-carboxamide]: 6.73 and 5.04.
For `CN(C(=O)c1ccc2nc(N)c3cnn(C)c3c2c1)[C@@H]1COCc2cc(C(F)(F)F)ccc21` [Example 499, 4-amino-N,1-dimethyl-N-((4S)-7-(trifluoromethyl)-3,4-dihydro-1H-2-benzopyran-4-yl)-1H-pyrazolo[4,3-c]quinoline-8-carboxamide], the pIC50 in assay [1] was 8.40; in assay [2] it was 6.82.
For the compound `CN(C(=O)c1ccc2nc(N)c3cnn(C)c3c2c1)[C@@H]1COCc2cc(C(F)(F)F)ncc21` [Example 500, 4-amino-N,1-dimethyl-N-((4S)-7-(trifluoromethyl)-3,4-dihydro-1H-pyrano[4,3-c]pyridin-4-yl)-1H-pyrazolo[4,3-c]quinoline-8-carboxamide], the pIC50 in assay [1] is 8.00; in assay [2], 6.30.
Regarding `CCN(C(=O)c1ccc2nc(N)c3cnn(C)c3c2c1)[C@@H]1COCc2nc(C(F)(F)F)ccc21` [Example 501, 4-amino-N-ethyl-1-methyl-N-((5S)-2-(trifluoromethyl)-5,8-dihydro-6H-pyrano[3,4-b]pyridin-5-yl)-1H-pyrazolo[4,3-c]quinoline-8-carboxamide], the results for the pIC50 in assay [1] and in assay [2] were 8.40 and 6.85, respectively.
